Measured values taken from patent US11534441B2, “MAP4K1 inhibitors” (Blueprint Medicines Corporation, priority 2020, dated 2022).

Legend:
[1] = target: MAP4K1 (HPK1) (Homo sapiens (Human), UniProt Q92918); assay: MAP4K1 (HPK1) biochemical enzymatic activity, electrophoretic mobility shift (EZReader 2), ATP at APPKM (26 μM)
Outline: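 Enzyme at 0.1-15 nM was incubated with 1.5 μM fluorescent peptide and ATP at the apparent Km (26 μM) in HEPES pH 7.5, MgCl2, DTT and Brij 35. The reaction ran at 25° C for 60-180 min with a 10-point, 4-fold compound series (1% DMSO) and was stopped with EDTA. Substrate and product peptides were resolved by microfluidic mobility shift, and their peak ratio gave activity.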

[2] = test system: expanded CD3+ T cells; assay: T cell enhancement of cytokines: IL2 measurement (HTRF) in expanded CD3+ T cells stimulated with anti-CD3/anti-CD28; format: cell-based, human; settings: IL-2 measurement
Outline: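 Healthy-donor T cells (95-98% CD3+) expanded 10-14 days with IL2 and CD3/CD28 beads, then cryopreserved. 100K cells/well in X-VIVO 10 serum-free medium were stimulated with plate-bound anti-CD3 plus soluble anti-CD28 with compound at various concentrations for 24 h. Secreted IL2 measured by HTRF after 24 h antibody incubation.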

[3] = Homo sapiens, T-cell, class designation
[4] = Homo sapiens, T-cell, numeric value

Chain of MAP4K1 (HPK1) (Q92918 whole entry): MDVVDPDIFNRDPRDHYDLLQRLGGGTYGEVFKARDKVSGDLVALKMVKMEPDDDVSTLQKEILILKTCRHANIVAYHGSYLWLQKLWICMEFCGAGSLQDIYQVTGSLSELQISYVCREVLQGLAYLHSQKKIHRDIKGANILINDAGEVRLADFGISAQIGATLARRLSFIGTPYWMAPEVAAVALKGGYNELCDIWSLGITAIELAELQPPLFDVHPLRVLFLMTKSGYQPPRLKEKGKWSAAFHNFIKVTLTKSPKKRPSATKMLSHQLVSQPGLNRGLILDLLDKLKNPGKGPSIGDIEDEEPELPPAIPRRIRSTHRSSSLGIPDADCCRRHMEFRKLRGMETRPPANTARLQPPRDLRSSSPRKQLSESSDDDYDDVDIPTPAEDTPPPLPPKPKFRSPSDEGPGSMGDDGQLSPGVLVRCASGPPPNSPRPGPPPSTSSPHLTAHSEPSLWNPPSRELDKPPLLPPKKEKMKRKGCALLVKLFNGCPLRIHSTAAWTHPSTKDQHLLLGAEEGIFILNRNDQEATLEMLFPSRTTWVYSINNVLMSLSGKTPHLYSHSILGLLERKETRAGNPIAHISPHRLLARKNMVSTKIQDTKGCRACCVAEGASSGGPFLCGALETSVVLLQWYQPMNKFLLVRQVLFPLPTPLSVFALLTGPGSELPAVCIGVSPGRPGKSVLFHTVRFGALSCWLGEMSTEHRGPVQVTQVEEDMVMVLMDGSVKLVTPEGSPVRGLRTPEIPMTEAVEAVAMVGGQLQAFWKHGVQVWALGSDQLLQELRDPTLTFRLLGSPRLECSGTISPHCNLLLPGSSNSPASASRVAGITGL

SMILES | IC50 ([1]; class designation) [nM] | IC50 ([1]; numeric value) [nM] | EC50 [2, 3] [nM] | EC50 [2, 4] [nM] | EC50 ([2]; class designation) [nM] | EC50 ([2]; numeric value) [nM]
CC1(C)Cc2nc(Nc3cc4c(C(C)(C)N)cnc(OC5(C)CC5)c4cn3)ccc2C(=O)O1 [Compound 135] | 0.31 to 1 | 0.54 | < 35 | 31.6 | – | –
CC[C@@](C)(N)c1cnc(OC2CC2)c2cnc(Nc3ccc4c(n3)C(C)(C)COC4=O)cc12 [Compound 136] | 0.31 to 1 | 0.39 | – | – | 35.1 to 45 | 40.5
CC[C@H]1c2nc(Nc3cc4c(C(C)(C)N)cnc(OC5CC5)c4cn3)ccc2C(=O)O[C@H]1C [Compound 138] | < 0.3 | 0.27 | – | – | < 35 | 13.8
C[C@@H]1OC(=O)c2ccc(Nc3cc4c(C(C)(C)N)cnc(OC5COC5)c4cn3)nc2[C@H]1C [Compound 141] | 0.31 to 1 | 0.42 | < 35 | 21.6 | – | –
CC[C@@](C)(N)c1cnc(OC2CC2)c2cnc(Nc3ccc4c(n3)[C@@H](C)C(C)(C)OC4=O)cc12 [Compound 156] | < 0.3 | 0.1 | – | – | < 35 | 13.6
CC[C@](C)(N)c1cnc(OC2CC2)c2cnc(Nc3ccc4c(n3)C(C)(C)[C@@H](C)OC4=O)cc12 [Compound 157] | < 0.3 | 0.14 | – | – | < 35 | 21.3
C[C@@H]1OC(=O)c2ccc(Nc3cc4c(C(C)(C)N)cnc(O[C@H]5CCOC5)c4cn3)nc2[C@H]1C [Compound 159] | 0.31 to 1 | 0.39 | < 35 | 27.4 | – | –
C[C@@H]1OC(=O)c2ccc(Nc3cc4c(C(C)(C)N)cnc(OCC(C)(F)F)c4cn3)nc2[C@H]1C [Compound 166] | < 0.3 | 0.25 | 35.1 to 45 | 40 | – | –
CC1(C)Cc2nc(Nc3cc4c([C@](C)(N)C5CCC5)cnc(OC5CC5)c4cn3)ccc2C(=O)O1 [Compound 168] | < 0.3 | 0.15 | – | – | 35.1 to 45 | 41.3
C[C@@H]1OC(=O)c2ccc(Nc3cc4c([C@](C)(N)C5CCC5)cnc(OC5CC5)c4cn3)nc2[C@H]1C [Compound 170] | < 0.3 | 0.07 | – | – | < 35 | 6.8
CC[C@]1(C)OC(=O)c2ccc(Nc3cc4c(C(C)(C)N)cnc(OCC(F)(F)F)c4cn3)nc21 [Compound 172] | 1.1 to 10 | 4.47 | – | – | > 55 | 74.8

Now from value to compound:

IC50 ([1]; class designation) [nM] | IC50 ([1]; numeric value) [nM] | EC50 [2, 3] [nM] | EC50 [2, 4] [nM] | EC50 ([2]; class designation) [nM] | EC50 ([2]; numeric value) [nM] | SMILES
1.1 to 10 | 2.9 | – | – | < 35 | 28.2 | CC[C@@]1(C)OC(=O)c2ccc(Nc3cc4c(C(C)(C)N)cnc(OCC(F)(F)F)c4cn3)nc21 [Compound 174]
0.31 to 1 | 0.8 | – | – | < 35 | 20.9 | CC(C)(N)c1cnc(OCC(F)(F)F)c2cnc(Nc3ccnc([C@@H]4CCC[C@@H](O)C4)n3)cc12 [Compound 176]
< 0.3 | 0.29 | > 55 | 58.7 | – | – | C[C@@H]1OC(=O)c2ccc(Nc3cc4c(C(C)(C)N)cnc(OC5CC(F)(F)C5)c4cn3)nc2[C@H]1C [Compound 178]
> 10 | 26.4 | < 35 | 3.1 | – | – | CC1(C)Cc2nc(Nc3cc4c(C(C)(C)NC5COC5)cnc(OC5CC5)c4cn3)ccc2C(=O)O1 [Compound 183]
< 0.3 | 0.09 | – | – | < 35 | 6.8 | COC[C@@](C)(N)c1cnc(OC)c2cnc(Nc3ccc4c(n3)[C@@H](C)[C@H](C)OC4=O)cc12 [Compound 188]
< 0.3 | 0.16 | – | – | 45.1 to 55 | 45.8 | COC[C@@](C)(N)c1cnc(OC2CC2)c2cnc(Nc3ccc4c(n3)[C@@H](C)C(C)(C)OC4=O)cc12 [Compound 189]
< 0.3 | 0.1 | – | – | < 35 | 19 | CC[C@](C)(N)c1cnc(OC2CC2)c2cnc(Nc3ccc4c(n3)C3(CC3)C(C)(C)OC4=O)cc12 [Compound 196]
< 0.3 | 0.22 | – | – | < 35 | 29.8 | CC[C@@H](N)c1cnc(OC)c2cnc(Nc3ccc4c(n3)[C@@H](C)C(C)(C)OC4=O)cc12 [Compound 204]
0.31 to 1 | 0.35 | > 55 | 113 | – | – | COC[C@@](C)(N)c1cnc(C)c2cnc(Nc3ccc4c(n3)[C@@H](C)[C@H](C)OC4=O)cc12 [Compound 205]
0.31 to 1 | 0.7 | – | – | > 55 | 96 | COC[C@@H](N)c1cnc(OC)c2cnc(Nc3ccc4c(n3)[C@@H](C)C(C)(C)OC4=O)cc12 [Compound 208]
< 0.3 | 0.23 | – | – | > 55 | 177 | CC[C@@H](N)c1cnc(C)c2cnc(Nc3ccc4c(n3)[C@@H](C)C(C)(C)OC4=O)cc12 [Compound 210]
